Results published in patent US20230081426A1, “COMPOUNDS AND METHODS FOR KRAS MODULATION AND INDICATIONS THEREFOR” (Plexxikon Inc., priority 2020, published 2023).

Assays:
[1] = molecular target: T1, G12V-mutant human KRAS (amino acid residues 1-188) (Homo sapiens, UniProt P01116, G12V); assay: KRAS Binding Competition Assay (AlphaScreen; biotinylated KRpep-2d analogue), G12V; settings: geometric mean, read-out: KRAS GMean IC50 (uM) MUTATION: G12V
T1 construct: G12V-mutant human KRAS (amino acid residues 1-188) with FLAG tag was purified from E. coli; made in house; host or cells: E. coli

[2] = molecular target: T2, G12D-mutant human KRAS (amino acid residues 1-188) (Homo sapiens, UniProt P01116, G12D); assay: KRAS Binding Disruption Assay (AlphaScreen; biotinylated KRpep-2d analogue or RAF1-RBD), G12D; settings: KRAS G12D; geometric mean; read-out: KRAS GMean IC50 (uM) MUTATION: G12D
T2 construct: G12D or G12C-mutant human KRAS (amino acid residues 1-188) with FLAG tag; made in house; host or cells: E. coli
How it was run: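 AlphaScreen readout: signal falls as compound displaces biotinylated KRpep-2d analogue or RAF1-RBD from mutant KRAS. Both partners at 5-20 nM, 1 h binding at 25° C, then 10 μg/mL Anti-Flag acceptor and streptavidin donor beads for 1 h. IC50 by nonlinear regression of % inhibition.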

IC50 [1] [µM] | IC50 [2] [µM] | SMILES
10 to 100 | 0.0001 to 10 | CN1CCC[C@H]1COc1nc(N2C[C@H]3CC[C@@H](C2)N3)c2ccc(N3CC(O)Cc4ccccc43)c(F)c2n1 (stereo partly drawn) [P-0307, 1-(4-((1R,5S)-3,8-diazabicyclo[3.2.1]octan-3-yl)-8-fluoro-2-(((S)-1-methylpyrrolidin-2-yl)methoxy)quinazolin-7-yl)-1,2,3,4-tetrahydroquinolin-3-ol]
10 to 100 | 0.0001 to 10 | CN1CCC[C@H]1COc1nc(N2C[C@H]3CC[C@@H](C2)N3)c2cc(F)c(-c3c[nH]c4ccccc34)c(F)c2n1 [P-0308, 4-((1R,5S)-3,8-diazabicyclo[3.2.1]octan-3-yl)-6,8-difluoro-7-(1H-indol-3-yl)-2-(((S)-1-methylpyrrolidin-2-yl)methoxy)quinazoline]
10 to 100 | 10 to 100 | CN1CCC[C@H]1COc1nc(N2C[C@H]3CC[C@@H](C2)N3)c2cc(F)c(-c3c[nH]c4cccc(Cl)c34)c(F)c2n1 [P-0309, 4-((1R,5S)-3,8-diazabicyclo[3.2.1]octan-3-yl)-7-(4-chloro-1H-indol-3-yl)-6,8-difluoro-2-(((S)-1-methylpyrrolidin-2-yl)methoxy)quinazoline]
10 to 100 | 0.0001 to 10 | CN1CCC[C@H]1COc1nc(N2C[C@H]3CC[C@@H](C2)N3)c2cc(F)c(-c3c[nH]c4ccc(Cl)cc34)c(F)c2n1 [P-0310, 4-((1R,5S)-3,8-diazabicyclo[3.2.1]octan-3-yl)-7-(5-chloro-1H-indol-3-yl)-6,8-difluoro-2-(((S)-1-methylpyrrolidin-2-yl)methoxy)quinazoline]
10 to 100 | 10 to 100 | CN1CCC[C@H]1COc1nc(N2[C@@H]3CC[C@H]2CN(C(=O)CC(C)(C)O)C3)c2ccc(-c3cc(O)cc4ccccc34)cc2n1 [P-0311, 3-hydroxy-1-((1R,5S)-8-(7-(3-hydroxynaphthalen-1-yl)-2-(((S)-1-methylpyrrolidin-2-yl)methoxy)quinazolin-4-yl)-3,8-diazabicyclo[3.2.1]octan-3-yl)-3-methylbutan-1-one]
10 to 100 | 10 to 100 | CN1CCC[C@H]1COc1nc(N2[C@@H]3CC[C@H]2CN(C(=O)Cc2n[nH]c4ccccc24)C3)c2ccc(-c3cc(O)cc4ccccc34)cc2n1 [P-0312, 1-((1R,5S)-8-(7-(3-hydroxynaphthalen-1-yl)-2-(((S)-1-methylpyrrolidin-2-yl)methoxy)quinazolin-4-yl)-3,8-diazabicyclo[3.2.1]octan-3-yl)-2-(1H-indazol-3-yl)ethan-1-one]
100 to 1000 | 10 to 100 | CN1CCC[C@H]1COc1nc(N2C[C@H]3CC[C@@H](C2)N3)c2ccc(-c3c[nH]c4ccc(C#N)cc34)c(F)c2n1 [P-0313, 3-(4-((1R,5S)-3,8-diazabicyclo[3.2.1]octan-3-yl)-8-fluoro-2-(((S)-1-methylpyrrolidin-2-yl)methoxy)quinazolin-7-yl)-1H-indole-5-carbonitrile]
100 to 1000 | 10 to 100 | COc1ccc2[nH]cc(-c3ccc4c(N5C[C@H]6CC[C@@H](C5)N6)nc(OC[C@@H]5CCCN5C)nc4c3F)c2c1 [P-0314, 4-((1R,5S)-3,8-diazabicyclo[3.2.1]octan-3-yl)-8-fluoro-7-(5-methoxy-1H-indol-3-yl)-2-(((S)-1-methylpyrrolidin-2-yl)methoxy)quinazoline]
10 to 100 | 10 to 100 | CN1CCC[C@H]1COc1nc(N2[C@@H]3CC[C@H]2CN(C(=O)CS(N)(=O)=O)C3)c2ccc(-c3cc(O)cc4ccccc34)cc2n1 [P-0315, 2-((1R,5S)-8-(7-(3-hydroxynaphthalen-1-yl)-2-(((S)-1-methylpyrrolidin-2-yl)methoxy)quinazolin-4-yl)-3,8-diazabicyclo[3.2.1]octan-3-yl)-2-oxoethane-1-sulfonamide]
10 to 100 | 10 to 100 | CN1CCC[C@H]1COc1nc(N2[C@@H]3CC[C@H]2CN(C(=O)CNS(N)(=O)=O)C3)c2ccc(-c3cc(O)cc4ccccc34)cc2n1 [P-0316, N-(2-((1R,5S)-8-(7-(3-hydroxynaphthalen-1-yl)-2-(((S)-1-methylpyrrolidin-2-yl)methoxy)quinazolin-4-yl)-3,8-diazabicyclo[3.2.1]octan-3-yl)-2-oxoethyl)aminosulfonamide]
10 to 100 | 10 to 100 | CN1CCC[C@H]1COc1nc(N2[C@@H]3CC[C@H]2CN(C(=O)CNC(N)=O)C3)c2ccc(-c3cc(O)cc4ccccc34)cc2n1 [P-0317, 1-(2-((1R,5S)-8-(7-(3-hydroxynaphthalen-1-yl)-2-(((S)-1-methylpyrrolidin-2-yl)methoxy)quinazolin-4-yl)-3,8-diazabicyclo[3.2.1]octan-3-yl)-2-oxoethyl)urea]
10 to 100 | 0.0001 to 10 | CN1CCC[C@H]1COc1nc(N2C[C@H]3CC[C@@H](C2)N3)c2cc(Cl)c(-c3c[nH]c4ccccc34)c(F)c2n1 [P-0318, 4-((1R,5S)-3,8-diazabicyclo[3.2.1]octan-3-yl)-6-chloro-8-fluoro-7-(1H-indol-3-yl)-2-(((S)-1-methylpyrrolidin-2-yl)methoxy)quinazoline]
10 to 100 | 0.0001 to 10 | COc1ccc2[nH]cc(-c3c(Cl)cc4c(N5C[C@H]6CC[C@@H](C5)N6)nc(OC[C@@H]5CCCN5C)nc4c3F)c2c1 [P-0319, 4-((1R,5S)-3,8-diazabicyclo[3.2.1]octan-3-yl)-6-chloro-8-fluoro-7-(5-methoxy-1H-indol-3-yl)-2-(((S)-1-methylpyrrolidin-2-yl)methoxy)quinazoline]
0.0001 to 10 | 0.0001 to 10 | CN(C)c1cccc(COc2nc(N3[C@@H]4CC[C@H]3CNC4)c3ccc(-c4cc(O)cc5ccccc45)cc3n2)c1 [P-0320, 4-(4-((1R,5S)-3,8-diazabicyclo[3.2.1]octan-8-yl)-2-((3-(dimethylamino)benzyl)oxy)quinaz-olin-7-yl)naphthalen-2-ol]
10 to 100 | 10 to 100 | Oc1cc(-c2ccc3c(N4[C@@H]5CC[C@H]4CNC5)nc(Oc4cccnc4)nc3c2)c2ccccc2c1 [P-0321, 4-(4-((1R,5S)-3,8-diazabicyclo[3.2.1]octan-8-yl)-2-(pyridin-3-yloxy)quinazolin-7-yl)naphthalen-2-ol]
10 to 100 | 10 to 100 | Oc1cc(-c2ccc3c(N4[C@@H]5CC[C@H]4CNC5)nc(Nc4cccnc4)nc3c2)c2ccccc2c1 [P-0322, 4-(4-((1R,5S)-3,8-diazabicyclo[3.2.1]octan-8-yl)-2-(pyridin-3-ylamino)quinazolin-7-yl)naphthalen-2-ol]
10 to 100 | 0.0001 to 10 | CN1CCC[C@H]1COc1nc(N2C[C@H]3CC[C@@H](C2)N3)c2cc(Cl)c(-c3c[nH]c4ccc(Cl)cc34)c(F)c2n1 [P-0323, 4-((1R,5S)-3,8-diazabicyclo[3.2.1]octan-3-yl)-6-chloro-7-(5-chloro-1H-indol-3-yl)-8-fluoro-2-(((S)-1-methylpyrrolidin-2-yl)methoxy)quinazoline]
10 to 100 | 100 to 1000 | CN1CCC[C@H]1COc1nc(N2[C@@H]3CC[C@H]2CN(C(=O)CC(=O)O)C3)c2ccc(-c3cc(O)cc4ccccc34)cc2n1 [P-0324, 3-((1R,5S)-8-(7-(3-hydroxynaphthalen-1-yl)-2-(((S)-1-methylpyrrolidin-2-yl)methoxy)quinazolin-4-yl)-3,8-diazabicyclo[3.2.1]octan-3-yl)-3-oxopropanoic acid]
0.0001 to 10 | 10 to 100 | CN1CCC[C@H]1COc1nc(N2[C@@H]3CC[C@H]2CN(C(=O)CC#N)C3)c2ccc(-c3cc(O)cc4ccccc34)cc2n1 [P-0325, 3-((1R,5S)-8-(7-(3-hydroxynaphthalen-1-yl)-2-(((S)-1-methylpyrrolidin-2-yl)methoxy)quinazolin-4-yl)-3,8-diazabicyclo[3.2.1]octan-3-yl)-3-oxopropanenitrile]
0.0001 to 10 | 0.0001 to 10 | CN(C)c1ccc(CCc2nc(N3C[C@H]4CC[C@@H](C3)N4)c3cc(Cl)c(-c4c(O)cccc4F)c(F)c3n2)cc1 [P-0326, 2-(4-((1R,5S)-3,8-diazabicyclo[3.2.1]octan-3-yl)-6-chloro-2-(4-(dimethylamino)phenethyl)-8-fluoroquinazolin-7-yl)-3-fluorophenol]
10 to 100 | 0.0001 to 10 | CN1CCC[C@H]1COc1nc(N2CC3CCC2CN3)c2ccc(-c3cc(O)cc4ccccc34)c(F)c2n1 (stereo partly drawn) [P-0327, 4-(4-(2,5-diazabicyclo[2.2.2]octan-2-yl)-8-fluoro-2-(((S)-1-methylpyrrolidin-2-yl)methoxy)quinazolin-7-yl)naphthalen-2-ol]
10 to 100 | 0.0001 to 10 | CN1CCC(Oc2nc(N3C[C@H]4CC[C@@H](C3)N4)c3cc(Cl)c(-c4c(O)cccc4F)c(F)c3n2)CC1 [P-0329, 2-(4-((1R,5S)-3,8-diazabicyclo[3.2.1]octan-3-yl)-6-chloro-8-fluoro-2-((1-methylpiperidin-4-yl)oxy)quinazolin-7-yl)-3-fluorophenol]
10 to 100 | 0.0001 to 10 | COc1cccc(F)c1-c1c(Cl)cc2c(N3C[C@H]4CC[C@@H](C3)N4)nc(OC3CCN(C)CC3)nc2c1F [P-0330, 4-((1R,5S)-3,8-diazabicyclo[3.2.1]octan-3-yl)-6-chloro-8-fluoro-7-(2-fluoro-6-methoxyphenyl)-2-((1-methylpiperidin-4-yl)oxy)quinazoline]
10 to 100 | 0.0001 to 10 | CN1CCc2cccc(Oc3nc(N4C[C@H]5CC[C@@H](C4)N5)c4cc(Cl)c(-c5c(O)cccc5F)c(F)c4n3)c2C1 [P-0331, 2-(4-((1R,5S)-3,8-diazabicyclo[3.2.1]octan-3-yl)-6-chloro-8-fluoro-2-((2-methyl-1,2,3,4-tetrahydroisoquinolin-8-yl)oxy)quinazolin-7-yl)-3-fluorophenol]
